From paper PMC4608580, “Synthesis and Evaluation of Biological Activity of Antimicrobial – Pro-Proliferative Peptide Conjugates” (PLoS ONE, 2015) come the findings set out here.

What all share (assay type): cell-based
The subject of one data set is B. cereus. Particulars: broth microdilution, Mueller-Hinton broth, approximately 10^5 CFU/mL, 37°C, 24 h, absorbance 590 nm, at least triplicate. In a few lines: (§1)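 Peptides serially diluted in PBS at 2–250 μg/mL before inoculum addition, then inoculated with ~10^5 CFU/mL exponential-phase bacteria in double-strength Mueller-Hinton broth. Plates incubated overnight at 37°C, with growth read as absorbance at 590 nm after 24 h. MIC determined in at least triplicate.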
For orientation: Dilution methods test growth across graded concentrations, often in twofold steps.

The next data set concerns B. subtilis. Particulars: broth microdilution, Mueller-Hinton broth, approximately 10^5 CFU/mL, 37°C, 24 h, absorbance 590 nm, at least triplicate. The procedure, abridged:
as §1

Data set [1] relates to Candida albicans (CCM 8186). Particulars: broth microdilution, Mueller-Hinton broth + 2% glucose, about 2.5 x 10^3 CFU/mL, 37°C, 24 h, absorbance 590 nm, peptide 2 to 250 μg/mL, at least triplicate. The procedure, abridged: (§2)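 Broth microdilution MIC: peptides serially diluted in PBS (2 to 250 μg/mL) were mixed with double-concentrated Mueller-Hinton broth inoculum, about 10^5 CFU/mL for bacteria or about 2.5 x 10^3 CFU/mL for Candida (broth supplemented with 2% glucose). After incubation at 37°C, absorbance at 590 nm was read at 24 h, in at least triplicate.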

In data set [2] the test system is Candida glabrata (CCM 8270). Particulars: broth microdilution, Mueller-Hinton broth + 2% glucose, about 2.5 x 10^3 CFU/mL, 37°C, 24 h, absorbance 590 nm, at least triplicate. In a few lines:
as §2

In data set [3] the test system is Candida krusei (CCM 8271). Particulars: broth microdilution, Mueller-Hinton broth + 2% glucose, about 2.5 x 10^3 CFU/mL, 37°C, 24 h, absorbance 590 nm, at least triplicate. The procedure, abridged:
as §2

Data set [4] has as its system Candida parapsilosis (CCM 8260). Particulars: broth microdilution, Mueller-Hinton broth + 2% glucose, about 2.5 x 10^3 CFU/mL, 37°C, 24 h, absorbance 590 nm, at least triplicate. The procedure, abridged: as §2
Data set [5] concerns Candida tropicalis (CCM 8264). Particulars: broth microdilution, Mueller-Hinton broth + 2% glucose, about 2.5 x 10^3 CFU/mL, 37°C, 24 h, absorbance 590 nm, at least triplicate. The procedure, abridged:
as §2

In data set [6] the test system is Escherichia coli (PCM 2057). Particulars: broth microdilution, Mueller-Hinton broth, approximately 10^5 CFU/mL, 37°C, 24 h, absorbance 590 nm, at least triplicate. The procedure, abridged:
as §2

Data set [7] relates to Pseudomonas aeruginosa (PCM 499). Particulars: broth microdilution, Mueller-Hinton broth, approximately 10^5 CFU/mL, 37°C, 24 h, absorbance 590 nm, at least triplicate. In a few lines:
as §2

Data set [8] relates to Staphylococcus aureus (PCM 2054). Particulars: broth microdilution, Mueller-Hinton broth, approximately 10^5 CFU/mL, 37°C, 24 h, absorbance 590 nm, at least triplicate. The procedure, abridged:
as §2

Data set [9] relates to Staphylococcus epidermidis (PCM 2118). Particulars: broth microdilution, Mueller-Hinton broth, approximately 10^5 CFU/mL, 37°C, 24 h, absorbance 590 nm, at least triplicate. In a few lines: as §2
For data set [10], the system named is immortalized human HaCaT keratinocytes. Nature of the data set: Cell proliferation assay (MTT). Particulars: 72 h; for Effect on HaCaT cell viability/proliferation (MTT), in words / Effect on HaCaT cell viability (MTT), in words: serum-free DMEM; for Effect on HaCaT cell viability/proliferation (MTT), in words: whole range 1–50 μg/mL, vs. control without peptide, triplicate; for Effect on HaCaT cell viability (MTT), in words: peptide at 50 μg/mL; for Concentration above which the conjugate is cytotoxic: MTT, cell type not named in the sentence (keratinocytes and fibroblasts tested). Here is the method: In our study two kind of cells were used: immortalized human HaCaT keratinocytes (DKFZ Heidelberg, Germany) and primary dermal fibroblasts obtained from 3 healthy donors. Both types of the used cell lines were grown in Dulbecco's modified Eagle's medium (DMEM) (Sigma–Aldrich, Germany), that contained […] of glucose, […] of L-glutamine, sodium pyruvate and sodium bicarbonate. Additionally, medium was supplemented with 10% of FCS (fetal calf serum, Sigma-Aldrich, Germany), 100 U/mL of penicillin and 100 μg/mL streptomycin (Sigma-Aldrich, Germany). The cells were grown in culture dishes (BD, USA) under standard conditions in a humidified atmosphere with 5% CO2 at 37°C and medium was changed every 2 days.
The fibroblasts and keratinocytes were seeded at density of 4500 and 6000 cells per well, respectively, into 96-well plates suspended in a medium supplemented with 10% of FCS. After 24 h the media were exchanged with serum- and antibiotic- free DMEM and tested peptides dissolved in PBS were added yielding final concentration ranging from 1 to 50 μg/mL. Cells were incubated for the next 24 hours, when the medium was exchanged again and fresh portion of peptides (used at the same concentrations as previously) was added. Incubation was continued for the next 48 hours (the overall time of cell exposition to peptide was 72 h). At the end of the experiment cells were treated with 20 μL of MTT (5 mg/mL in PBS). After 3 h at 37°C under 5% CO2 medium was discarded and replaced by 6mM HCl in isopropanol. After 15 min when the purple crystals of formazan were fully solubilized, absorbance was read at 570 nm with a plate reader. The optical density reflects the level of cell viability as MTT is converted in purple formazan product only in the presence of viable mitochondria of the living cells.
Fig 1 Pro-proliferative activity of the tested peptides towards human keratinocytes (A) and fibroblasts (B). Cells were incubated for 72 hours in serum-free DMEM medium in the presence of peptides applied at concentrations of 1,10, 25 and 50 μg/mL, respectively. The data represents results of MTT assay expressed as the percentage of the cell viability in comparison to their control sample (cells incubated in serum-free DMEM without tested peptides), additional positive control corresponds to the cells incubated in the presence of 10% FCS. All experiments were performed independently in triplicate. *P < 0.05, **P < 0.01, ***P < 0.001 vs. control.
In order to evaluate a long-term effect of peptides, experiments were carried out for 72 hours. Before addition of the tested compounds, the cell medium was exchanged for the fresh one not containing any serum or antibiotic.

On to “IKKILSKIKKLL-NH2 [DK5, Lys-rich derivative of amphibian AMP temporin-1CEb, …-NH2, reference compound]”, for which the “MIC B. cereus” value in the data set on B. cereus was above 125 µg/mL. In addition, in the data set with B. subtilis, the “MIC B. subtilis” value was 15.6 µg/mL. The “MIC C. albicans” value in data set [1] is 31.3 µg/mL. Besides, the “MIC C.glabrata” value in data set [2] is 62.5 µg/mL. For the same substance, the “MIC C.krusei” value in [3] was 7.8 µg/mL. The “MIC C. parapsilosis” value in data set [4] came out at 31.3 µg/mL. The “MIC C.tropicalis” value in data set [5] was below 2 µg/mL. Also, the “MIC E.coli” value in [6] was above 125 µg/mL. Also, the “MIC P. aeruginosa” value in data set [7] amounted to 50 µg/mL. Also, the “MIC S.aureus” value in data set [8] was above 125 µg/mL. Also, in [9], the “MIC S. epidermidis” value is 7.8 µg/mL. In [10], the “Effect on HaCaT cell viability/proliferation (MTT), in words” value is recorded as “negative dose-response relationship”.
With “YAGFLR-PEG-IKKILSKIKKLL-NH2 [DAL-PEG-DK5, conjugate of dalargin and DK5 joined by PEG-linker]”, in the data set with B. cereus, the “MIC B. cereus” value turned out to be 25 µg/mL. In the data set with B. subtilis, the “MIC B. subtilis” value came to 2.0 µg/mL. Moreover, the “MIC C. albicans” value in data set [1] stood at 25 µg/mL. The “MIC C.glabrata” value in data set [2] stood at 125 µg/mL. The “MIC C.krusei” value in data set [3] is 3.9 µg/mL. Also, the “MIC C. parapsilosis” value in data set [4] amounted to 2.0 µg/mL. Besides, in data set [5], the “MIC C.tropicalis” value is below 2 µg/mL. In addition, in [6], the “MIC E.coli” value was determined as 25 µg/mL. The “MIC P. aeruginosa” value in [7] is 25 µg/mL. Further, in data set [8], the “MIC S.aureus” value amounted to 50 µg/mL. Further, the “MIC S. epidermidis” value in [9] was found to be 7.8 µg/mL. In addition, in data set [10], the “Effect on HaCaT cell viability (MTT), in words” value is on record as “lowest cell viability”; the “Effect on HaCaT cell viability/proliferation (MTT), in words” value is “negative dose-response relationship”; the “Concentration above which the conjugate is cytotoxic” value is “higher than 25 μg/mL”.
In the case of “YAGFLR-PEG-IKKILSKIKKLLK-NH2 [DAL-PEG-LK6, conjugate of dalargin and LK6 joined by PEG-linker]”, the “MIC B. cereus” value in the data set on B. cereus turned out to be 12.5 µg/mL. Besides, the “MIC B. subtilis” value against B. subtilis came out at 7.8 µg/mL. The “MIC C. albicans” value in data set [1] was found to be 25 µg/mL. The “MIC C.glabrata” value in data set [2] is above 125 µg/mL. Further, the “MIC C.krusei” value in [3] turned out to be 7.8 µg/mL. Besides, in data set [4], the “MIC C. parapsilosis” value was found to be 2.0 µg/mL. Moreover, the “MIC C.tropicalis” value in data set [5] was determined as 3.9 µg/mL. In [6], the “MIC E.coli” value is 25 µg/mL. Moreover, the “MIC P. aeruginosa” value in [7] stood at 25 µg/mL. The “MIC S.aureus” value in data set [8] is 25 µg/mL. Also, in data set [9], the “MIC S. epidermidis” value came to 7.8 µg/mL. Further, in data set [10], the “Effect on HaCaT cell viability (MTT), in words” value is “cytotoxic effect” and the “Concentration above which the conjugate is cytotoxic” value was “higher than 25 μg/mL”.
